Assay results: publication PMC7822874, “Chemoprotective antimalarials identified through quantitative high-throughput screening of Plasmodium blood and liver stage parasites” (Scientific Reports, 2021)

system: Plasmodium falciparum Dd2 asexual blood stage parasites; experiment: microbe, parasite or virus in culture; design: species or system Plasmodium falciparum Dd2 in human erythrocytes; single determination (one 11-point concentration-response curve); conditions: Plasmodium falciparum, DD2, Erythrocyte, 72 h

| SMILES | AC50 |
| --- | --- |
| O=C(CN(C(=O)c1cccc([N+](=O)[O-])c1)C1CCCCC1)Nc1ccc(Cl)c([N+](=O)[O-])c1 [MLS000560351-01] | 13.3 µM |

same assay, conditions: Plasmodium falciparum, DD2, Erythrocyte, 72 h; read-out: AC50

| SMILES | AC50 |
| --- | --- |
| Nc1ccc2oc(-c3ccc4[nH]cnc4c3)nc2c1 [MLS000121646-01] | 13.3 µM |
| CCC(C)(C)n1nnnc1C(c1cccnc1)N1CCN(c2cccc(C(F)(F)F)c2)CC1 (stereo not shown) [MLS000122548-01] | 6.68 µM |
| CC(O)CNCCNCc1c(OCc2ccccc2)ccc2ccccc12 (stereo not shown) [MLS000324858-01] | 8.41 µM |
| COc1cc(Br)c(C(C)NC(=O)c2cccc(Br)c2)cc1OC (stereo not shown) [MLS000325399-01] | 2.11 µM |
| N#Cc1cc(C#N)c(N2CCN(c3cccc(Cl)n3)CC2)nc1N [MLS000325470-01] | 3.35 µM |
| COc1cccc(/C(C#N)=C/c2c(-c3ccc(Cl)cc3)nc3c(C)cccn23)c1 [MLS000326878-01] | 5.96 µM |
| COc1ccc(C)cc1NCc1cc(=O)oc2cc(-c3ccccc3)c(O)cc12 [MLS000331048-01] | 5.31 µM |
| Cc1cc(C)c(S(=O)(=O)n2ccc(-c3ccc(OCCN(C)c4ccccn4)cc3)n2)c(C)c1 [MLS000331310-01] | 7.5 µM |
| CC(C)Cn1c(-c2ccco2)nc2c(c(=O)c3ccccc3n2C)c1=O [MLS000331990-01] | 9.44 µM |
| CCOc1ccc(-n2c(SCC(N)=O)nc3sc4c(c3c2=O)CCN(C)C4)cc1 [MLS000332254-01] | 15 µM |
| CC12CC3CC(C)(C1)CC(Nc1nc(N4CCOCC4)nc4ccccc14)(C3)C2 [MLS000332322-01] | 9.44 µM |
| OC(CNC1CCCc2ccccc21)COc1c(Cl)cccc1Cl (stereo not shown) [MLS000334339-01] | 1.68 µM |
| NC(=O)C1CCN(CC(=O)Nc2cccc(C(=O)Nc3cccc(C(F)(F)F)c3)c2)CC1 [MLS000334956-01] | 6.68 µM |
| CCOC(=O)c1c(NC(=O)CSc2nc3ccccc3c(=O)n2-c2ccccc2)sc(C(C)=O)c1C [MLS000335169-01] | 13.3 µM |
| Cc1cccc(CN2CCN(C(=O)CCl)CC2)c1 [MLS000336096-01] | 13.3 µM |
| CCOc1ccccc1NC(C)C(=O)Nc1cc(C(F)(F)F)ccc1N1CCOCC1 (stereo not shown) [MLS000336343-01] | 2.66 µM |
| CCN(CC)c1ccc(NC(=O)COc2ccccc2C#N)cc1S(=O)(=O)Nc1ccccc1OC [MLS000339599-01] | 7.5 µM |
| O=C(NC1=C(Nc2ccc(F)cc2)C(=O)c2ccccc2C1=O)c1ccc(Cl)cc1 [MLS000375026-01] | 0.841 µM |
| O=C(NC1=C(Nc2ccc(Cl)cc2)C(=O)c2ccccc2C1=O)c1ccccc1 [MLS000375030-01] | 0.473 µM |
| CCOc1ccc(NC(=O)Nc2cc(OCC(F)(F)F)cc(OCC(F)(F)F)c2)cc1 [MLS000391697-01] | 13.3 µM |
| CCOc1ccc2c(c1)OC(c1ccc(C)cc1)(C(F)(F)F)NC2=O (stereo not shown) [MLS000392832-01] | 2.66 µM |

| SMILES | AC50 |
| --- | --- |
| COc1ccc(S(=O)(=O)N2CCCCCC2)cc1NC(=O)c1c2c(nc3ccccc13)CCN(Cc1ccccc1)C2 [MLS000393062-01] | 4.73 µM |
| COc1ccc(NS(=O)(=O)c2cc(NC(=O)/C=C/c3cc(OC)c(OC)c(OC)c3)ccc2N2CCCCC2)cc1 [MLS000394995-01] | 6.68 µM |
| COCCN(CCOC)c1nc(N)c2c(N)nc3c(c2c1C#N)CC(=O)N3Cc1ccc(Cl)cc1 [MLS000402239-01] | 5.96 µM |
| O=C(c1cc(C(=O)NCc2ccccc2)c(=O)n(Cc2ccccc2)c1)c1cc(Br)ccc1O [MLS000402314-01] | 4.73 µM |
| COc1ccc(-c2cc(=O)c3cc(C)ccc3[nH]2)cc1 [MLS000517811-01] | 10.6 µM |
| O=c1cc(-c2ccccc2)[nH]c2ccc(F)cc12 [MLS000517821-01] | 5.96 µM |
| CC(=O)c1c(S)nc(-c2ccccc2)nc1N1CCN(C)CC1 [MLS000519428-01] | 5.96 µM |
| Cc1ccc(C(=O)N/N=C/c2ccc([N+](=O)[O-])s2)cc1 [MLS000519463-01] | 5.96 µM |
| CCN(CC)c1cc(C)c2cc(NC(=O)c3ccc(Br)o3)ccc2n1 [MLS000519820-01] | 6.68 µM |
| CCOC(=O)c1cc(C)n(Cc2ccc(OCC)c(OC)c2)c1C [MLS000521227-01] | 10.6 µM |
| CCOC(=O)c1c(CN2CCCCC2)n(C)c2cc(Br)c(O)cc12 [MLS000523143-01] | 7.5 µM |
| Cc1cc(C)n(CC(O)COc2ccccc2)n1 (stereo not shown) [MLS000525359-01] | 13.3 µM |
| O=c1oc2ccccc2c(N2CCCCC2)c1CN1CCCC1 [MLS000525481-01] | 9.44 µM |
| Cc1ccc2c(c1)c1c3n2CCCN(Cc2ccccc2)C3CCC1 (stereo not shown) [MLS000525489-01] | 4.22 µM |
| CC(=O)Oc1ccc2ccccc2c1C(NC(=O)C(C)C)c1cccc([N+](=O)[O-])c1 (stereo not shown) [MLS000526079-01] | 16.8 µM |
| CC(C)(C)n1nnnc1C(c1cccnc1)N(Cc1ccccc1)Cc1ccco1 (stereo not shown) [MLS000528003-01] | 5.31 µM |
| CC(C)(C)c1ccc(CN(Cc2ccccc2)C(c2ccccn2)c2nnnn2C(C)(C)C)cc1 (stereo not shown) [MLS000529130-01] | 4.73 µM |
| COc1ccc2[nH]c(C)c(CCN(Cc3cccs3)C(S)=Nc3ccc(F)cc3)c2c1 [MLS000529849-01] | 4.22 µM |
| Oc1ccc(Cl)cc1CN1CCN(Cc2ccccc2)CC1 [MLS000530315-01] | 0.944 µM |
| CCN1CCN(Cc2cc(Br)cc(Br)c2O)CC1 [MLS000530316-01] | 7.5 µM |
| CC(C)(C)n1[nH]c2c3c(ccc2c1=O)C(=O)c1ccccc1C3=O [MLS000530323-01] | 4.73 µM |

| SMILES | AC50 |
| --- | --- |
| CCOC(=O)c1c(CN2CCOCC2)n(-c2ccccc2)c2cc(Br)c(O)cc12 [MLS000530556-01] | 2.99 µM |
| Clc1ccc(NNc2ccnc3cc(Cl)ccc23)cc1 [MLS000537447-01] | 1.5 µM |
| O=C(Nc1nc2ccccc2n1Cc1ccccc1)c1ccc(COc2ccccc2[N+](=O)[O-])o1 [MLS000543610-01] | 16.8 µM |
| COC(=O)c1cc(C(=O)c2ccc(Cl)cc2Cl)cn1C [MLS000546235-01] | 13.3 µM |
| CN(C)CC1CSCCC1(O)c1ccccc1Cl (stereo not shown) [MLS000546783-01] | 5.96 µM |
| O=C(Nc1ccsc1C(=O)NC1CCCCC1)c1ccc(F)cc1 [MLS000546987-01] | 6.68 µM |
| CCc1nn2cc(C(=O)c3cc(C)ccc3O)cnc2c1-c1ccc(F)cc1 [MLS000548735-01] | 9.44 µM |
| CN1CCCC1CCNS(=O)(=O)c1ccc(Br)cc1 (stereo not shown) [MLS000549971-01] | 5.96 µM |
| O=c1c2c([nH]c3ccccc13)CCCC2 [MLS000551004-01] | 6.68 µM |
| CCCC1=[N+](CC(=O)c2ccccc2)CCn2c(C)ccc21 [MLS000551171-01] | 15 µM |
| Cn1c(SCC(=O)N2c3ccccc3CCc3ccccc32)nnc1-c1cc2ccccc2cc1O [MLS000553503-01] | 8.41 µM |
| CC1CCc2cc(F)ccc2N1C(=O)CSc1nnc2c(n1)[nH]c1ccc(F)cc12 (stereo not shown) [MLS000556689-01] | 8.41 µM |
| CCc1ccc2c(c1)cc(CN(/C(S)=N/c1cccc(C)c1)C1CC1)c1nnnn12 [MLS000556704-01] | 3.35 µM |
| CCc1c(C)c(C#N)c2nc3ccccc3n2c1NCC1CCCO1 (stereo not shown) [MLS000556827-01] | 2.99 µM |
| C[N+](C)(C)CCN(Cc1ccc(Cl)cc1)c1ccccn1 [MLS000556881-01] | 9.44 µM |
| CN1C(=O)C2(c3ccccc31)N(C)CC(c1ccccc1)C21SC(=S)N(Cc2ccco2)C1=O (stereo not shown) [MLS000559203-01] | 13.3 µM |
| CCCCNC(=O)c1onc(CSc2nc3ccccc3[nH]2)c1C(=O)NCCCC [MLS000561096-01] | 5.31 µM |
| O=C(NCC1CCCCC1)C12CN(Cc3ccccc3)CC1C(c1cccc([N+](=O)[O-])c1)=NO2 (stereo not shown) [MLS000561441-01] | 6.68 µM |
| CCCCC(=O)Nc1nc(C)c(-c2csc(Nc3cc(OC)ccc3OC)n2)s1 [MLS000561609-01] | 9.44 µM |
| Cc1ccnc2nc(C(=O)Nc3cc(Cl)ccc3N3CCOCC3)nn12 [MLS000567033-01] | 4.73 µM |
| O=C(NC(S)=Nc1ccc(NC(=O)c2cccs2)cc1)c1ccco1 [MLS000567605-01] | 9.44 µM |

| SMILES | AC50 |
| --- | --- |
| CCCCn1cc(C(=O)c2cc(Br)ccc2O)cc(C#N)c1=O [MLS000568063-01] | 13.3 µM |
| CCCc1nc2ccc(NC(=O)c3cccs3)cc2c(=O)n1Cc1ccc(Cl)cc1 [MLS000569177-01] | 8.41 µM |
| COc1ccc2c(c1OC)C(=O)N1N=C(c3ccc(O)cc3)CC21 (stereo not shown) [MLS000570475-01] | 16.8 µM |
| CCOc1nc(N=C(N)N)nc2c(C)cccc12 [MLS000570610-01] | 10.6 µM |
| O=C(NCC(c1ccco1)N1CCCC1)c1ccc(Cl)cc1 (stereo not shown) [MLS000570686-01] | 8.41 µM |
| COc1ccccc1N1CCN(Cc2cc(C)c(C)cc2O)CC1 [MLS000571139-01] | 0.376 µM |
| CC(C)C(=O)NC(c1ccc([N+](=O)[O-])cc1)c1c(O)ccc2ccccc12 (stereo not shown) [MLS000571279-01] | 13.3 µM |
| COc1ccc(N2CCN(Cc3cc4c(cc3O)CCC4)CC2)cc1 [MLS000572034-01] | 16.8 µM |
| COc1ccc(C2=C(Nc3ccccc3)c3ccccc3C2=O)cc1 [MLS000572234-01] | 9.44 µM |
| O=[N+]([O-])c1ccc(N2CCN(/C(S)=N/C3CCCCC3)CC2)cc1 [MLS000574247-01] | 1.88 µM |
| Cc1ccc(S(=O)(=O)Nc2ccc(-c3cn4ccc(C)cc4n3)cc2)cc1 [MLS000579534-01] | 6.68 µM |
| COc1ccc(C(C)NC(S)=NC2CCCC2)cc1OC (stereo not shown) [MLS000581238-01] | 6.68 µM |
| COc1cc([N+](=O)[O-])ccc1NC(=O)Nc1nc2c(s1)CCCC2 [MLS000581295-01] | 6.68 µM |
| C=CC/N=C(\S)N1CCN(c2ccc([N+](=O)[O-])cc2)CC1 [MLS000581348-01] | 4.22 µM |
| COC(=O)c1nc2n(n1)C(c1ccc([N+](=O)[O-])cc1)C(C(=O)Nc1ccc(Cl)cc1)=C(C)N2 (stereo not shown) [MLS000582454-01] | 5.31 µM |
| CCC1=Nc2cc(C(=O)NCc3ccco3)ccc2Sc2ccc(C)cc21 [MLS000583106-01] | 8.41 µM |
| COc1cc(CN2CC(=O)N(c3ccc(C)c(C)c3)C2=S)cc(OC)c1OC [MLS000583901-01] | 15 µM |
| OCC[n+]1ccc(/C=C/c2c[nH]c3ccccc23)cc1 [MLS000585200-01] | 2.99 µM |
| Cc1cccc(Nc2cc(C)c3c(O)cccc3n2)c1C [MLS000586980-01] | 4.73 µM |
| CCCCn1c(NS(=O)(=O)c2ccccc2)c(C(=O)OCC)c2nc3ccccc3nc21 [MLS000589117-01] | 10.6 µM |
| Cc1cc(Nc2cccc(Cl)c2)nc(NCc2ccccc2)n1 [MLS000591844-01] | 8.41 µM |
